Results on five compounds are retold here after publication PMC6838683, “Discovery of Human Signaling Systems: Pairing Peptides to G Protein-Coupled Receptors” (Cell, 2019).

One experiment deals with T1, HA-OGR1 (GPR68) (Homo sapiens, UniProt Q15743).
T1 construct: HA; expressed in transfected cells
Kind of experiment: Ca2+ mobilization assay (Fluo-4). It is filed as cell-based. Particulars: mean. As for the experimental part: Peptide-dependent Ca^2+ mobilization responses were measured in HEK293 stable cell lines (HA-OGR1 (GPR68) and vector pcDNA) ([Saxena et al., 2012]) that were seeded in 96-well plates (1 × 10^5 cells/well) and cultured at 37°C with 5% CO2 to near confluence in DMEM with 10% FBS (Corning). Six hours prior to assay, medium was changed to pH 8.0 or pH 7.4 HAM’s F12 Nutrient Mixture (GIBCO) without FBS and transferred to a 37°C incubator without CO2. One hour prior to stimulation, cells were incubated in pH 8.0 or pH 7.4 HBSS with Ca^2+ and Mg^2+ (GIBCO), supplemented with 15 mM HEPES, 2 μM Fluo-4 AM (Invitrogen) and 1.5 mM probenecid ([…] to prevent Fluo-4 efflux) as described previously ([Pera et al., 2018]). Indicated peptides were pipetted using an automated system and emission signal was recorded at 525 nm after excitation at 485 nm using Flex Station III (Molecular Devices). Ca^2+ mobilization responses were determined by subtracting basal fluorescence from the net peak of agonist-induced fluorescence. Ionomycin (1 μM) was used to calculate the maximum Ca^2+ signal to normalize peptide-mediated responses.

In the next experiment the target is GPR68 (Homo sapiens, UniProt Q15743). The experiment can be described thus: Real-time receptor internalization (TR-FRET), concentration-response. Set-up: hIL-2Ra signal peptide (N); expressed in transfected cells. In kind it is cell-based. Particulars: GPR68; mean, SEM and n. As for the experimental part:
48 hr prior to parallel assaying, SNAP-tagged oGPCR cells were plated (10,000 cells/well) in fibronectin-coated 384-well Epic biosensor microplates (Corning) and poly-D-lysine coated white 384-well plates (for internalization assays). SNAP- GLP-1 receptor was plated alongside orphan receptor cells as an internal assay control for internalization assays. Receptor-expression was induced with 0.1 μg/ml doxycycline.
A TR-FRET real-time internalization assay was used to examine peptide-dependent changes in orphan receptor localization as described previously ([Foster and Bräuner-Osborne, 2018]). Surface-expressed SNAP-tagged receptors were labeled with a cell-impermeable luminescent terbium cryptate (100 nM SNAP Lumi4-Tb; Cisbio, France) for 1 hr at 37°C. Cells were washed to remove excess terbium and incubated with fluorescein-O-acetic acid (100 μM; Sigma Aldrich) for 5 min at 37°C. Peptides were added as for DMR assays, and internalization responses were recorded for 60 min at 37°C using an EnVision 2104 Multimode plate reader (PerkinElmer). 100 nM GLP-1 was used as a positive control for SNAP-GLP1R internalization. Real-time internalization responses were calculated based on TR-FRET (excitation 340 nm; emission 520 nm and 615 nm), and were expressed as the ratio between donor (terbium) and acceptor (fluorescein) emission. For peptide screening analysis (both DMR and internalization assays), we calculated the area under the curve from the real-time traces. As the magnitude of the responses was variable between orphan receptor targets, particularly for the SNAP-tag based internalization assay where the signal is dependent on receptor surface expression, the AUC values were normalized to their respective plate averages and expressed as fold change. Validation experiments for receptor internalization were performed as above. Internalization data was processed in MS-Excel and area under the curve was used to generate concentration-response curves using GraphPad Prism 7.0. Data represent mean ± standard error of the mean (SEM) from at least 3 biologically independent experiments.
A general note: In TR-FRET formats the signal depends on donor and acceptor labels being close together.

The target of another experiment is T2, NPY5 (Homo sapiens, UniProt Q15761).
T2 construct: host or cells: HTLA cells (HEK293-derived)
T2 sequence (Q15761 1-445): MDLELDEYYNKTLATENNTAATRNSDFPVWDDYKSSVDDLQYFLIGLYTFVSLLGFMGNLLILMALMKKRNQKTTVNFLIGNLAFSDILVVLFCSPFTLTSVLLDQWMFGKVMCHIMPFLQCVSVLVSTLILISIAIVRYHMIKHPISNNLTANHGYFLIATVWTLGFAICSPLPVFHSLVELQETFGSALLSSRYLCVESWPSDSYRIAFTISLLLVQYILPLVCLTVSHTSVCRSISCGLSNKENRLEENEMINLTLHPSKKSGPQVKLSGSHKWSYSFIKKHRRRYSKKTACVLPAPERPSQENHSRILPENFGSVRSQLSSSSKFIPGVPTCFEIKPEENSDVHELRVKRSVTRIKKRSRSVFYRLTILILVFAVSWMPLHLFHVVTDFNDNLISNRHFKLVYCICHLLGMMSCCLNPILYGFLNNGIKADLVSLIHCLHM
Kind of experiment: β-arrestin recruitment (Tango), known peptide receptors. In kind it is cell-based. The note with it: NPY5R, n = 3; for Emax, Tango (fold over basal) / pEC50, Tango (fold over basal): mean. The protocol: (§1) The peptide library was additionally screened against 120 GPCR targets in parallel, including all available orphan receptors and 27 known class A peptide receptors using the Tango assay platform ([Kroeze et al., 2015]). Briefly, HTLA cells (a HEK293 cell line stably expressing a tTA-dependent luciferase reporter and a β-arrestin2-TEV fusion gene) were plated 10,000 cells/well in poly-L-lysine–coated clear-bottom white 384-well plates in DMEM supplemented with 10% FBS, 100 U/ml penicillin and 100 μg/ml streptomycin, 2 μg/ml puromycin and 100 μg/ml hygromycin B. 24 hr later, cells were transfected with Tango GPCR constructs using the calcium phosphate method ([Jordan et al., 1996]). The next day, culture medium was changed to DMEM + 1% dFBS and 10 μM peptides were added for overnight stimulation. Bright-Glo solution (Promega) was incubated for 15–20 min at room temperature, and luminescence was counted using a Trilux luminescence counter (Wallac).
For subsequent peptide validation experiments using Tango assays, HTLA cells were transiently transfected in 10 cm dishes with the receptor of interest using polyethylenimine (PEI) ([Longo et al., 2013]). After 24 hr, 25,000 cells/well were plated in clear bottom, white-walled 384-well plates. Assays were performed as described above, with luminescence measured using an EnSpire 2300 Multimode plate reader (PerkinElmer). Luminescence counts were exported into Excel and were analyzed using GraphPad Prism 7.

Experiment [1] deals with 120 GPCR targets, including all available orphan receptors and 27 known class A peptide receptors. The experiment can be described thus: Peptide library screen, β-arrestin recruitment (Tango, fold change, 10 μM). It is filed as cell-based, human. The note with it: for Active at: (activity in b-arrestin recruitment assays): Tango, receptor(s) at which the known library peptide was active, among its known GPCR target(s), validated pairings. The protocol: as §1
For orientation: Activated receptors often draw arrestin, which recruitment assays turn into a signal.

As usually defined, the Emax is the size of the effect at its maximum, as opposed to the concentration needed.

Like-named read-outs stand apart in the source and are kept apart here. Residues, ends and D or L forms follow the SMILES beside them.

T1 sequence (Q15743 whole entry): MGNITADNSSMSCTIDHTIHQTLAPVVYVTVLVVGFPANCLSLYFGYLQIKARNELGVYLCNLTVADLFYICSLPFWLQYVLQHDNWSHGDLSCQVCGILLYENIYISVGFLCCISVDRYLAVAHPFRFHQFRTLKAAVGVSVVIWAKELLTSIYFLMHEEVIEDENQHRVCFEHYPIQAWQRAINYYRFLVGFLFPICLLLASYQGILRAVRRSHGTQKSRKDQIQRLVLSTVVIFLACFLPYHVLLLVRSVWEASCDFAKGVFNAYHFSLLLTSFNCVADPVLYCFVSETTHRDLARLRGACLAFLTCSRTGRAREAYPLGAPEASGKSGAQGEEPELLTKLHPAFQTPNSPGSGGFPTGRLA
Chain of GPR68 (Q15743 2-365 limits assumed): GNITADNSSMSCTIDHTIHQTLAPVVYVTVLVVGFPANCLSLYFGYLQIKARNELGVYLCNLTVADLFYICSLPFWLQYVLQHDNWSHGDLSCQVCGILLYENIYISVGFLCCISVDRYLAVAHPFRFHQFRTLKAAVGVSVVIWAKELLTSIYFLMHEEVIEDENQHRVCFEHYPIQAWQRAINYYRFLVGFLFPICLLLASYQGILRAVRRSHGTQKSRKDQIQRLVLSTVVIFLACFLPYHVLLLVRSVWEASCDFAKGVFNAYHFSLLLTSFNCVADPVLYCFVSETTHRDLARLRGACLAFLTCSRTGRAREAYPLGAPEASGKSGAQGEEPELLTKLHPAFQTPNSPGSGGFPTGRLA

As to `CC[C@H](C)[C@H](NC(=O)[C@H](CCCNC(=N)N)NC(=O)[C@H](CC(=O)O)NC(=O)[C@H](CCSC)NC(=O)[C@@H]1CCCN1C(=O)[C@@H](NC(=O)CNC(=O)[C@H](Cc1ccccc1)NC(=O)[C@@H](N)CCCNC(=N)N)[C@@H](C)CC)C(=O)NCC(=O)N[C@@H](CCCNC(=N)N)C(=O)N[C@@H](CC(N)=O)C(=O)N[C@@H](CCCNC(=N)N)C(=O)N[C@@H](CC(C)C)C(=O)N[C@@H](CO)C(=O)N[C@@H](CC(N)=O)C(=O)N[C@@H](CO)C(=O)N[C@@H](CCCNC(=N)N)C(=O)NCC(=O)O` [128 resynthesized] (H-RFGIPMDRIGRNRLSNSRG-OH), the Emax on HA-OGR1 (GPR68) (receptor GPR68, SEM and n (3), read-out: Calcium mobilization assays Emax (% ionomycin)) was 34.5%.

With `CC[C@H](C)[C@H](NC(=O)[C@H](CCCNC(=N)N)NC(=O)[C@H](CC(=O)O)NC(=O)[C@H](CCSC)NC(=O)[C@@H]1CCCN1C(=O)[C@@H](NC(=O)CNC(=O)[C@H](Cc1ccccc1)NC(=O)[C@@H](N)CCCNC(=N)N)[C@@H](C)CC)C(=O)NCC(=O)N[C@@H](CCCNC(=N)N)C(=O)N[C@@H](CC(N)=O)C(=O)N[C@@H](CCCNC(=N)N)C(=O)N[C@@H](CC(C)C)C(=O)N[C@@H](CO)C(=O)N[C@@H](CC(N)=O)C(=O)N[C@@H](CO)C(=O)N[C@@H](CCCNC(=N)N)C(=O)NCC(=O)O` [Osteocrin_(33-50)] (H-RFGIPMDRIGRNRLSNSRG-OH), on HA-OGR1 (GPR68) (GPR68, data from resynthesized peptide, SEM and n, read-out: Emax, Ca2+ mobilization (% iono)), the Emax stood at 34.5%. The “pEC50, Internalization (AUC)” value at GPR68 is recorded as “Response >1uM”.

Turning to MPHSFANLPLRF [Peptide 86], on NPY5, the “Emax, Tango (fold over basal)” value came out at 10.4 fold over basal and the “pEC50, Tango (fold over basal)” value came to 5.44. Moreover, the “Active at: (activity in b-arrestin recruitment assays)” value in experiment [1] was “NPFF1”.

As for SQAFLFQPQRF [Peptide 75], at NPY5 (Emax and pEC50 n.d.), the “Comment, Tango (fold over basal)” value is listed as “Response >1uM”. Also, the “Active at: (activity in b-arrestin recruitment assays)” value in experiment [1] was “NPFF1”.

With “SRTHRHSMEIRTPDINPAWYASRGIRPVGRF [Peptide 183]”, at NPY5, the “Emax, Tango (fold over basal)” value is 6.6 fold over basal and the “pEC50, Tango (fold over basal)” value was determined as 5.60. Also, the “Active at: (activity in b-arrestin recruitment assays)” value in experiment [1] is given as “PrRP”. Besides, in experiment [1] (repeat hitters of the peptide library screen, the value names the known receptor(s) confirmed in the β-arrestin recruitment (Tango) screen), the “Confirmation of known target in Tango” value is given as “PrRP”.
